Assays:
rat femur = test: Neo-osteogenesis action in rat femur; type: in vivo; conditions: female SD rats, one week after administration
Method: Eight weeks old female SD rats (Charles River Japan) were fixed in the side lying position under triple anesthesia (medetomidine hydrochloride, midazolam, and butorphanol tartrate). After hair of the left femoral region was shaved with a hair clipper, and disinfection treatment was performed with 70% ethanol, an in situ-solidified gel solution of a test compound, specifically, a test compound dissolved in poly(lactic-co-glycolic acid) (RESOMER RG502H, produced by Evonik Industries)/poly(lactic-co-glycolic acid)-polyethylene glycol block copolymer (5050 DLG mPEG 5000, produced by Lakeshore Biomaterials)/N-methyl-2-pyrroridone (produced by Wako) (weight ratio 47%/3%/50%), was filled in a 1-mL syringe, a 21G injection needle was attached to the syringe, and the needle was transdermally stabbed from the quadriceps to the periosteum near the center of the femoral diaphyseal. Then, 100 μg as the amount of the test compound, or 50 μL as the administration volume of the solution was injected between the quadriceps and the periosteum, and the injection needle was drawn out. To the rats of the control group, the aforementioned in situ-solidified gel solution alone was administered. One week after the administration of the drug solution, the triple anesthesia was given to the animals, and they were fixed in the supine position, and euthanized by bleeding. […], circumferential tissues such as muscles were removed, the bone mineral content of the whole femur was measured by using a bone mineral analyzer DCS-600EX (produced by ALOKA), then it was divided into three portions along the long axis, and the bone mineral content of the center part (diaphysis) was evaluated. The test was performed with the groups each consisting of 6 animals.

[1] = system: dog lumbar vertebrae posterolateral fixation model; test: Bone union-promoting action in dog lumbar vertebrae posterolateral fixation model; type: in vivo; conditions: twelve weeks after operation; for Continuity score based on soft X-ray image (Mean ± SD): grades 0 to 3 per Table 9; for Manual evaluation of bone union: beagle dogs, microspheres containing compound of Example 23 mixed with autologous bone graft, animals with union/5
Method: In order to investigate a bone union-promoting action in the spinal fusion of the compounds of the present invention, influence of mixing of microspheres containing a test compound at the time of autologous bone grafting was confirmed by using a lumbar vertebrae posterolateral fixation model.
Twelve to thirteen months old male beagle dogs ([…] LABES) were anesthetized by administration of a 1:1 mixture of ketamine hydrochloride (Ketalar 500 mg, Daiichi Sankyo Propharma Co., Ltd.) and xylazine (Selactar 2% Injection, Bayer Yakuhin, Ltd.) at a dose of about 0.5 mL/kg, and Japanese Pharmacopoeia-listed isoflurane (Elucaine, produced by Mylan Pharmaceutical) was inhaled with an inhaler IMPAC6 (VetEquip Inc.) to maintain the anesthesia. The animal was fixed in the prone position, hair of a wide area over the right and left spina iliaca posterior superiors, part around iliac crest, and lower back was shaved, and disinfection treatment was performed with povidone-iodine listed in Japanese Pharmacopoeia (Isodine solution for animals, 20 mg of povidone-iodine listed in Japanese Pharmacopoeia in 1 mL, Meiji Seika Pharma) and ethanol for disinfection (Wako Pure Chemical Industries). […] About 2 g each of the right and left iliums were extracted by using a rongeur and bone scissors, and astriction was performed. The collected ilium, from which the soft tissues were removed, was finely broken with bone scissors, and thereby made into chips of 1 mm size to obtain 2 g each of bone grafts for right and left. Then, the skin was dissected along the spinous processes of lower back with a scalpel, the left and right lumbodorsal fascias were dissected, and then the transverse processes of the fourth and fifth lumbar vertebrae were exposed while the multifidus muscle and longissimus muscle were separated and dissected between the fascias thereof. The soft tissues adhering to the transverse processes were removed, and then decortication of the cortical bone on the surface of the transverse processes was performed with an electric drill (OS-40MV2, Osada Electric Co., Ltd.) to prepare a bone graft bed. The bone graft (2 g) prepared above was sufficiently mixed with a microsphere suspension obtained by suspending microspheres containing a test compound (compound of Example 23) in an amount corresponding to 10, 30, or 100 μg of the test compound (prepared according to the method of Preparation Example 1) in 800 μL of a CMC solution, embedded and grafted on the transverse processes of the fourth and fifth lumbar vertebrae, and the bone graft bed between the transverse processes. After the autologous bone grafting, the lumbodorsal fascia, subcutaneous tissues, and skin were sutured, and the surgical site was disinfected. Twelve weeks after the operation, the animals were euthanized with overdose (30 mg/kg) of sodium pentobarbiturate (Somnopentyl, Kyoritsuseiyaku Corporation), and then the lumbar vertebrae were extracted. Bone union was judged by manually confirming movability of the fourth and fifth lumbar vertebrae (manual palpation) under blinding, and soft X-ray images were obtained from one direction by using Softex M-60 (Softex). The test was performed with the groups each consisting of 5 animals.

human EP3 receptor = target: T1, human EP3 receptor (Homo sapiens, UniProt P43115); test: Receptor binding test, [3H]PGE2 binding inhibition, EP3; conditions: [3H]PGE2 1.54 nmol/L, membrane fraction HTS092M, 25°C 60 minutes
T1 construct: purchased Merck Millipore HTS092M
T1 sequence (P43115 1-390): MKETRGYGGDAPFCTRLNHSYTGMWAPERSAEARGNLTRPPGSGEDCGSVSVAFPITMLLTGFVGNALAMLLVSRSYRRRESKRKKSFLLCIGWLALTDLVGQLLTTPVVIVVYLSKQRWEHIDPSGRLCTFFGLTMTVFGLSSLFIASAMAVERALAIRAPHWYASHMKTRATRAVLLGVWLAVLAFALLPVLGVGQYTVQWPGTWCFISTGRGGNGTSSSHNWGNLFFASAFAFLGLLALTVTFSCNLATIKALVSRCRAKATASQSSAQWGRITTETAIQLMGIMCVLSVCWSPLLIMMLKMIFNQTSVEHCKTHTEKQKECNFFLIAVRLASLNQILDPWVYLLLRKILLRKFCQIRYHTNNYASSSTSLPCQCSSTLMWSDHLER
Method: In order to evaluate selectivity to each EP receptor subtype, [^3H]PGE2 binding-inhibition activities of test compounds for cell membranes on which human EP2, human EP3, and human EP4 receptors were stably expressed were measured.
As the membrane fractions of the prostaglandin E receptors EP2, EP3, and EP4, 10.0 μg protein/tube each of HTS185M, HTS092M, and HTS142M of Merck Millipore were used, respectively. Each membrane fraction was incubated with a reaction mixture (250 μL/tube) containing a test compound and [3H]PGE2 at 25° C. for 60 minutes. […] After the reaction, the membrane fraction was collected on filter paper by using a cell harvester, the filter paper was transferred to a measurement vial, and the measurement was performed on a liquid scintillation counter.
The nonspecific binding was determined as binding observed in the presence of excess amount (10 μM) of unlabeled PGE2. The measurement of the [3H]PGE2 binding-inhibiting activity of a test compound was performed by adding the test compound at various concentrations. The following buffers were used for the reaction.
Buffer for EP3: 50 mmol/L Tris-HCl buffer containing 10 mmol/L MgCl2, and 1 mmol/L EDTA

IC50 (human EP3 receptor): > 1000 nM
Structure (SMILES): O=C(O)c1ccc(CCN2C(=O)SCCN2CC[C@@H](O)Cc2cccc(C#Cc3ccsc3)c2)s1 [Example 23, (S)-5-(2-(4-(3-Hydroxy-4-(3-(thiophen-3-ylethynyl)phenyl)butyl)-2-oxo-1,3,4-thiadiazinan-3-yl)ethyl)thiophene-2-carboxylic acid]
Bone mineral content of femur 1/3 center region (mg) Left femur (administered with compound) (rat femur; 100 μg test compound in in situ-solidified gel solution injected between quadriceps and periosteum): 82.7 ± 6.7 mg
Bone mineral content of femur 1/3 center region (mg) Right femur (no administration of compound) (rat femur; contralateral femur, 100 μg test compound given at left femur): 58.9 ± 2.9 mg
Continuity score based on soft X-ray image (Mean ± SD) ([1]; 10 μg/site): 2.4 ± 0.5
Continuity score based on soft X-ray image (Mean ± SD) ([1]; 30 μg/site): 2.6 ± 0.5
Continuity score based on soft X-ray image (Mean ± SD) ([1]; 100 μg/site): 2.8 ± 0.4
Manual evaluation of bone union ([1]; 10 μg/site): 4/5
Manual evaluation of bone union ([1]; 30 μg/site): 4/5
Manual evaluation of bone union ([1]; 100 μg/site): 4/5
